Measured values reported in ChEMBL document CHEMBL4680267, “Design, synthesis and biological evaluation of 7-substituted 4-phenyl-6H-imidazo[1,5-a]thieno[3,2-f] [1,4]diazepines as safe anxiolytic agents” (Eur J Med Chem, 2020).

What was measured:
[1] = Hypnotic activity in mouse assessed as phenobarbital induced sleep induction time at 30 mg/kg, po administered 30 mins prior to phenobarbital challenge and measured for 30 mins (reference value: 4.4 +/- 1.1 min); assay type: ADME, organism-based; settings: in vivo, 1 h, time 60 min
Mus musculus [2] = experiment: Anti-amnesic activity in mouse model of scopolamine-induced cognitive deficit assessed as latency time to enter dark compartment in retension session at 30 mg/kg, po and measured after 24 hrs by passive avoidance test (reference value: 46.2 +/- 8.9 secs); assay type: functional
[3] = Hypnotic activity in mouse assessed as phenobarbital induced sleep endurance time at 30 mg/kg, po administered 30 mins prior to phenobarbital challenge and measured for 30 mins (reference value: 27.4 +/- 2.3 min); assay type: ADME, organism-based; settings: in vivo, 1 h, time 60 min
Mus musculus [4] = experiment: Anticonvulsive activity in mouse assessed as protection against pentylenetetrazole-induced seizure at 30 mg/kg, po administered 30 mins prior to pentylenetetrazole challenge and measured for 30 mins; assay type: functional; settings: time 60 min, 1 h
[5] = Effect on explorative activity in mouse assessed as exploration of holes at 30 mg/kg, po measured after 30 mins by hole-board test; assay type: ADME, organism-based; settings: in vivo, 0.5 h
[6] = Effect on motor coordination in mouse assessed as number of falls from rotarod at 30 mg/kg, po measured for 30 mins by rotarod test (reference value: 2.2 +/- 0.2); assay type: ADME, organism-based; settings: in vivo, 0.5 h
Rattus norvegicus = species: Rattus norvegicus; experiment: Displacement of [3H]-Flumazenil from Central type benzodiazepine receptor in rat cerebral cortex membrane at 10 uM incubated for 90 mins by liquid scintillation counting method relative to control; assay type: cell membranes
[7] = Effect on locomotor activity in mouse at 30 mg/kg, po measured after 30 mins by hole-board test; assay type: ADME, organism-based; settings: in vivo, 0.5 h
Mus musculus [8] = experiment: Anti-amnesic activity in mouse model of scopolamine-induced cognitive deficit assessed as latency time to enter dark compartment in training session at 30 mg/kg, po and measured for 30 mins by passive avoidance test (reference value: 14.2 +/- 2.2 secs); assay type: functional; settings: 0.5 h
Mus musculus [9] = experiment: Anxiolytic activity in mouse assessed as increase in time spent in lighted compartment at 10 mg/kg, po measured after 30 mins by light-dark box test (reference value: 122.3 +/- 8.5 secs); assay type: functional; settings: 0.5 h
[10] = Displacement of [3H]-Flumazenil from Central type benzodiazepine receptor in rat cerebral cortex membrane incubated for 90 mins by liquid scintillation counting method; assay type: cell membranes
Mus musculus [11] = experiment: Anti-amnesic activity in mouse model of scopolamine-induced cognitive deficit assessed as latency time to enter dark compartment in retension session at 10 mg/kg, po and measured after 24 hrs by passive avoidance test (reference value: 46.2 +/- 8.9 secs); assay type: functional
Mus musculus [12] = experiment: Anxiolytic activity in mouse assessed as increase in time spent in lighted compartment at 30 mg/kg, po measured after 30 mins by light-dark box test (reference value: 122.3 +/- 8.5 secs); assay type: functional; settings: 0.5 h
Mus musculus [13] = experiment: Anti-amnesic activity in mouse model of scopolamine-induced cognitive deficit assessed as latency time to enter dark compartment in training session at 10 mg/kg, po and mesured for 30 mins by passive avoidance test (reference value: 14.2 +/- 2.2 secs); assay type: functional; settings: 0.5 h
Mus musculus [14] = experiment: Anticonvulsive activity in mouse assessed as protection against pentylenetetrazole-induced seizure at 10 mg/kg, po administered 30 mins prior to pentylenetetrazole challenge and measured for 30 mins; assay type: functional; settings: time 60 min, 1 h
[15] = Hypnotic activity in mouse assessed as phenobarbital induced sleep endurance time at 2 mg/kg, sc administered 30 mins prior to phenobarbital challenge and measured for 30 mins (reference value: 27.4 +/- 2.3 min); assay type: ADME, organism-based; settings: in vivo, 1 h, time 60 min
[16] = Displacement of [3H]flunitrazepam from Benzodiazepine receptor in Sprague-Dawley rat cerebral cortex membrane preincubated for 10 mins followed by [3H]flunitrazepam addition and measured after 60 mins by liquid scintillation spectroscopy analysis; assay type: cell membranes
[17] = Displacement of [3H]flunitrazepam from Benzodiazepine receptor in Sprague-Dawley rat cerebral cortex membrane measured after 30 mins by liquid scintillation spectrometry analysis; assay type: cell membranes
[18] = Displacement of [3H]diazepam from Benzodiazepine receptor in rat cerebral cortex membrane; assay type: cell membranes

| SMILES | Time [1] [min] | Time (Mus musculus [2]) [s] | Time [3] [min] | Activity (Mus musculus [4]) [%] | Activity [5] | Activity [6] | inhibition (Rattus norvegicus) [%] | Activity [7] | Time (Mus musculus [8]) [s] | Time (Mus musculus [9]) [min] | IC50 [10] [nM] | Time (Mus musculus [11]) [s] | Time (Mus musculus [12]) [s] | Time (Mus musculus [13]) [s] | Activity (Mus musculus [14]) [%] | Time [15] [min] | IC50 [16] [nM] | IC50 [17] [nM] | IC50 [18] [nM] |
| --- | --- | --- | --- | --- | --- | --- | --- | --- | --- | --- | --- | --- | --- | --- | --- | --- | --- | --- | --- |
| CC(C)(C)OC(=O)c1ncn2c1CN=C(c1cccc(F)c1)c1ccsc1-2 | 3.5 | 72.5 | 25.9 | 0 | 17.5 | 1.9 | > 80 | 29.5 | 15.6 | 118.3 | 9.61 | 51.4 | 143.8 | 18.2 | – | – | – | – | – |
| CN1C(=O)CN=C(c2ccccc2)c2cc(Cl)ccc21 [DIAZEPAM] | – | – | – | – | – | – | – | – | – | 165.6 | 18.5 | – | – | – | 100 | – | – | – | – |
| CC(N)Cc1ccccc1 (configuration not stated) [AMPHETAMINE] | – | – | – | – | – | – | – | – | – | – | – | – | – | – | – | 22.2 | – | – | – |
| CCc1cc2c(s1)-n1c(C)nnc1CN=C2c1ccccc1Cl [ETIZOLAM] | – | – | – | – | – | – | – | – | – | – | – | – | – | – | – | – | 4.5 | – | – |
| Cc1nnc2n1-c1sc(Br)cc1C(c1ccccc1Cl)=NC2 [BROTIZOLAM] | – | – | – | – | – | – | – | – | – | – | – | – | – | – | – | – | – | 2.6 | – |
| CCOC(=O)c1ncn2c1CN=C(c1ccc(F)cc1)c1ccsc1-2 | 5.5 | 89.2 | 29.2 | 0 | 15.8 | 2.2 | > 80 | 34.5 | 14.7 | 109.8 | 16.2 | 55.8 | 151.2 | 13.9 | – | – | – | – | – |
| CC(C)(C)OC(=O)c1ncn2c1CN=C(c1ccc(F)cc1)c1ccsc1-2 | 4.7 | 85.9 | 27.2 | 40 | 17.5 | 2.1 | > 80 | 26.7 | 16.5 | 145.6 | 10.2 | 67.1 | 169.4 | 12.8 | 20 | – | – | – | – |
| CCOC(=O)c1ncn2c1CN=C(c1cccc(F)c1)c1ccsc1-2 | 5.2 | 75.3 | 24.9 | 20 | 15.3 | 2.5 | > 80 | 27.3 | 17.4 | 111.3 | 8.66 | 39.2 | 163.9 | 14.9 | – | – | – | – | – |
| CCOC(=O)c1ncn2c1CN=C(c1ccccc1)c1ccsc1-2 | 3.9 | 88.6 | 23.8 | 10 | 19.1 | 1.9 | > 80 | 28.2 | 18.1 | 131.3 | 11.7 | 54.1 | 166.2 | 13.6 | – | – | – | – | – |
| CC(C)(C)OC(=O)c1ncn2c1CN=C(c1ccccc1)c1ccsc1-2 | 4.4 | 70.3 | 28.8 | 20 | 15.9 | 2.4 | > 80 | 33.4 | 17.2 | 113.6 | 5.19 | 46.9 | 151.4 | 15.4 | – | – | – | – | – |
| CCOC(=O)c1ncn2c1CN(C)C(=O)c1cc(F)ccc1-2 [FLUMAZENIL] | – | – | – | – | – | – | – | – | – | – | – | – | – | – | – | – | – | – | 2.3 |
